Where “and” joins values, the source holds several entries; their conditions need not be identical. Equal entries are not always repeated.
Assays:
HPK1 = HPK1 (Homo sapiens (Human), UniProt Q92918); test: HPK1 enzyme activity detection (1 mM ATP system), ADP-Glo with MBP substrate, Pharmacological Experiment 2; format: biochemical
In short: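 Compound in DMSO preincubated with HPK1 for 15 min at 25 °C, then reaction started with ATP (1 mM system) and MBP substrate for 60 min at 25 °C. ADP formed quantified by ADP-Glo luminescence; IC50 derived from percentage inhibition.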

GLK = GLK (Homo sapiens (Human), UniProt Q8IVH8); test: GLK kinase assay (1 mM ATP system), ADP-Glo; format: biochemical
Sequence of GLK (Q8IVH8 whole entry, species assumed): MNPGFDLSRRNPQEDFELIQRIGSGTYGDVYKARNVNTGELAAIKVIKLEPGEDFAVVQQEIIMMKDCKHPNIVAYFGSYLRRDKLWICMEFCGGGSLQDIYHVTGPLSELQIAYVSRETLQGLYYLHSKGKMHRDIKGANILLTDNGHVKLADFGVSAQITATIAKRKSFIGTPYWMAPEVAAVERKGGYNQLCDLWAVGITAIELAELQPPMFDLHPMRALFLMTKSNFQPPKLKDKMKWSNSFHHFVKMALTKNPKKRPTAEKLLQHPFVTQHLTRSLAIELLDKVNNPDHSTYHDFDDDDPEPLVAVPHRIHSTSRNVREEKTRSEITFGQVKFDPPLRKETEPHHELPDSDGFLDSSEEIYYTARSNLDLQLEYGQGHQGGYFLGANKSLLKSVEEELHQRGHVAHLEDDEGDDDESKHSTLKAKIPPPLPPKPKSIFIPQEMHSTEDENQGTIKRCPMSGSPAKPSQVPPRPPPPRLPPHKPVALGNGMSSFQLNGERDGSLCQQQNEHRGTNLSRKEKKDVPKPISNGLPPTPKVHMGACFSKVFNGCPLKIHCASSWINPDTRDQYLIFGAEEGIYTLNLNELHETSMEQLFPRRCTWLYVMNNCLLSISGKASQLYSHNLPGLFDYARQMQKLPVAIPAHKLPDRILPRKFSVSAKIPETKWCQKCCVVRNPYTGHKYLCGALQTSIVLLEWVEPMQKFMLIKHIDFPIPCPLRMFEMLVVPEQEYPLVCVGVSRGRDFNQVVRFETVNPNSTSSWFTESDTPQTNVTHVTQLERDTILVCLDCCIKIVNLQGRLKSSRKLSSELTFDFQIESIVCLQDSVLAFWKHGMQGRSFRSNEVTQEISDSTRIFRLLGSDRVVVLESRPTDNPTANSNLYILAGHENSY
Protocol: Solution […] The test compound was serially diluted using DMSO to 200 times the detection concentration. […] Centrifuge at 1000×g for 30 seconds and incubate at 25° C. for 15 minutes. • (5) Add ATP and substrate: Add 2 μL of 2×ATP-MBP solution to the 384-well plate and centrifuge at 1000×g for 30 seconds. Seal the plate with a sealing film and incubate at 25° C. for 60 minutes. • (6) Add ADP-Glo reagent: Add 4 μL ADP-Glo reagent (Promega, V9103) to the 384-well plate, centrifuge at 1000×g for 30 seconds, and incubate at 25° C. for 60 minutes. • (7) Detection of luminescent signal: Add 8 μL of luminescent detection reagent (Promega, V9103) to a 384-well plate, centrifuge at 1000×g for 30 seconds, and incubate at 25° C. for 60 minutes. The chemiluminescent signal was read using a BMG microplate reader. • (8) Calculation of percentage inhibition rate: […] See Table 2 for the GLK kinase IC50 data of the example compounds on […].

[1] = test system: human peripheral blood mononuclear cells; test: Detection of IFN-γ secretion in human peripheral blood mononuclear cells (anti-CD3/CD28 beads, ELISA); format: cell-based; conditions: for Maximum induction factor: IFN-γ secretion, human PBMC; for EC3x: concentration for IFN-γ secretion of human PBMC to reach 3 times the baseline, 3 days
Protocol: Pharmacological Experiment 4: Detection of IFN-γ Secretion in Human Peripheral Blood Monocytes
• (1) Take human peripheral blood mononuclear cells frozen in liquid nitrogen, thaw in a 37° C. water bath, add 5 mL of preheated RPMI-1640 complete medium (containing 10% fetal bovine serum and penicillin/streptomycin), centrifuge at 500 g for 10 minutes, and discard the supernatant; • (2) Resuspend the cells in RPMI-1640 complete medium, adjust the density to 5×10^6 cells/mL, inoculate in a low-adhesion 6-well plate (Corning, 3471), and culture at 37° C. for 2 days; • (3) Collect cultured human peripheral blood mononuclear cells, centrifuge at 500 g for 10 min, and discard the supernatant; • (4) Resuspend the cells in RPMI-1640 complete medium, adjust the density to 1×10^6 cells/mL, and inoculate them in a round-bottom 96-well plate (Jet Biofil, TCP-002-096), with 100 μL per well; • (5) Add 50 μL of the test compound to each well and incubate at 37° C. for 30 min; • (6) Take human anti-CD3/CD28 magnetic beads (Miltenyi, 130-091-441), wash once with RPMI-1640 complete medium, and adjust the density to 0.5×106 beads/mL for later use; • (7) After the compound incubation, 50 μL of anti-human CD3/CD28 magnetic beads were added to each well and cultured at 37° C. for 3 days, • (8) The cell culture supernatant was obtained and the IFN-γ secretion was detected using the Human IFN-gamma DuoSet ELISA kit (R&D, DY285B-05); • (9) The log value of concentration was used as the X-axis and the IFN-γ secretion amount was used as the Y-axis. The “log (agonist) vs. response−variable slope” equation of the analysis software GraphPad Prism 7 was used to fit the dose-effect curve, thereby obtaining the EC3x value and the maximum induction factor of the compound for the secretion of IFN-γ from human peripheral blood mononuclear cells to reach 3 times the baseline.

Jurkat cells = test: Jurkat IL-2 secretion detection (anti-CD3/CD28 beads, ELISA); format: cell-based, human; conditions: for Maximum induction factor: IL-2 secretion, Jurkat cells; for EC3x: concentration for IL-2 secretion of Jurkat cells to reach 3 times the baseline, 20 h
Protocol: Pharmacological Experiment 5: Jurkat IL-2 Secretion Detection
• (1) Take the cultured Jurkat cells, adjust the density to 1×10^6 cells/mL, and inoculate them in a flat-bottom […] plate (Jet Biofil, TCP011096), with 100 μL per well, • (2) Add 50 μL of the test compound to each well and incubate at 37° C. for 30 min; • (3) Take human anti-CD3/CD28 magnetic beads (Miltenyi, 130-091-441), wash once with RPMI-1640 complete medium, and adjust the density to 4×106 beads/mL for later use; • (4) After the compound incubation, 50 μL of anti-human CD3/CD28 magnetic beads were added to each well and cultured at 37° C. for 20 h, • (5) The cell culture supernatant was obtained and the IL-2 secretion was detected using the Human IL-2 DuoSet ELISA kit (R&D, DY008); • (6) The log value of the concentration was used as the X-axis and the IL-2 secretion was used as the Y-axis. The “log (agonist) vs. response-variable slope” equation of the analysis software GraphPad Prism 7 was used to fit the dose-effect curve, thereby obtaining the […] and the […]

Sequence of HPK1 (Q92918 whole entry, species assumed): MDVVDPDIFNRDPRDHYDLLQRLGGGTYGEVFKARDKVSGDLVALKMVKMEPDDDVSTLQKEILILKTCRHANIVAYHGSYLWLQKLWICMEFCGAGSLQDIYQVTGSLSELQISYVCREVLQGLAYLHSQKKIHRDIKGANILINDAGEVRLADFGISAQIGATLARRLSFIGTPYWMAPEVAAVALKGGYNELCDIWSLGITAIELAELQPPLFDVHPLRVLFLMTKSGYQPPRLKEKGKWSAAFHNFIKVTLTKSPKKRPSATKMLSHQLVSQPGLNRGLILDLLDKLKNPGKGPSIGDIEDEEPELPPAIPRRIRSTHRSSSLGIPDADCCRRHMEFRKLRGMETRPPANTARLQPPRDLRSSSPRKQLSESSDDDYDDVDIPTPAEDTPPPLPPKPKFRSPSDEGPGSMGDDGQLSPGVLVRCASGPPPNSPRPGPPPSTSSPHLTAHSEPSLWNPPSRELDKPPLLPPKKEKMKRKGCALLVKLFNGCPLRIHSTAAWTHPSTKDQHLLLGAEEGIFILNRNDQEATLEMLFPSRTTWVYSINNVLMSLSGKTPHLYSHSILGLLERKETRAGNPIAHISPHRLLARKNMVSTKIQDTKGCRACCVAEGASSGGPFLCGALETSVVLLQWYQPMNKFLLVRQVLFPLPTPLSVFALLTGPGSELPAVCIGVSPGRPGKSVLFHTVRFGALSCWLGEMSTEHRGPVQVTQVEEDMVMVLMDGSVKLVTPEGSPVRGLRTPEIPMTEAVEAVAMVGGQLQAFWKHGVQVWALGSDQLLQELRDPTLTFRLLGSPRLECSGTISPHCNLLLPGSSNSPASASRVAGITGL

IC50 (HPK1) | IC50 (GLK) | Compound | Maximum induction factor [1] | EC3x [1] | Maximum induction factor (Jurkat cells) | EC3x (Jurkat cells)
3.57 nM | 311 nM | Cc1ccn2c(-c3ccc(Nc4ccc5c(n4)C(N(C)C)CC54CCOCC4)c4c3CNC4=O)cnc2c1 (stereo not shown) [Compound 161] | 6.4 | 67 nM |  | 
4.8 nM |  | O=C1NCc2c(-c3cnc4cc(F)ccn34)ccc(Nc3ccc4c(n3)C(N3CCCC3)CC43CCOCC3)c21 (stereo not shown) [Compound 40, 4-(7-FLUOROIMIDAZO[1,2-A]PYRIDIN-3-YL)-7-((7-(PYRROLIDIN-1-YL)-2′,3′,5′,6,6′,7-HEXAHYDROSPIRO[B]PYRIDIN-5,4′-PYRAN]-2-YL)AMINO)ISOINDOLIN-1-ONE] |  |  | 11.5 | 163 nM
2.78 nM | 273 nM | O=C1NCc2c(-c3cnc4cc(F)ccn34)ccc(Nc3ccc4c(n3)C(N3CC[C@H](F)C3)CC43CCOCC3)c21 (stereo partly shown) [Compound 75] | 8.3 and 10.5 | 64 nM and 119 nM |  | 
6.34 nM | 970 nM | CN(C)C1CC2(CCOC2)c2ccc(Nc3ccc(-c4cnc5cc(Cl)ccn45)c4c3C(=O)NC4)nc21 (stereo not shown) [Compound 151] | 6.5 | 53 nM |  | 
7.15 nM |  | O=C1NCc2c(-c3cnc4cc(F)ccn34)ccc(Nc3ccc4c(n3)C(N3C5CCC3COC5)CC43CCOCC3)c21 (stereo not shown) [Compound 115] | 9.6 | 225 nM |  | 
4.44 nM | 338 nM | CN(C)C1COC2(CCOCC2)c2ccc(Nc3ccc(-c4cnc5cc(F)ccn45)c4c3C(=O)NC4)nc21 (stereo not shown) [Compound 49, 7-((8′-(DIMETHYLAMINO)-2,3,5,6,7′,8′-HEXAHYDROSPIRO[PYRAN-4,5′-PYRAN[4,3-B]PYRIDINE]-2′-YL)AMINO)-4-(7-FLUOROIMIDAZOLE[1,2-A]PYRIDIN-3-YL)ISOINDOL-1-ONE] | 10.7 and 5.7 | 152 nM and 294 nM |  | 
5.23 nM | 767 nM | O=C1NCc2c(-c3cnc4cc(F)ccn34)ccc(Nc3ccc4c(n3)CCCC43CCCC3)c21 [Compound 127] | 19.1 | 74.6 nM |  | 
3.29 nM | 1050 nM | O=C1NCc2c(-c3cnc4cc(F)ccn34)ccc(Nc3ccc4c(n3)C(NC3CCOCC3)CC43CCOCC3)c21 (stereo not shown) [Compound 108] |  |  | 8.4 | 448 nM
5.26 nM |  | O=C1NCc2c(-c3cnc4cc(F)ccn34)ccc(Nc3ccc4c(n3)C(NCC(F)F)CC43CCOCC3)c21 (stereo not shown) [Compound 105] | 14.1 | 58 nM |  | 
10.2 nM | > 30000 nM | O=C1NCc2c(-c3cnc4cc(F)ccn34)ccc(Nc3ccc4c(n3)C(NC3CC3)CC43CCOCC3)c21 (stereo not shown) [Compound 62, 7-((7-(CYCLOPROPYLAMINO)-2′,3′,5′,6,6′,7-HEXAHYDROSPIRO[CYCLOPENTYL[B]PYRIDINE-5,4′-PYRAN]-2-YL)AMINO)-4-(7-FLUOROIMIDAZOLE[1,2-A]PYRIDIN-3-YL)ISOINDOL-1-ONE] | 4.9 | 241 nM |  | 
3.21 nM | 455 nM | O=C1NCc2c(-c3cnc4cc(Cl)ccn34)ccc(Nc3ccc4c(n3)CCCC43CCOCC3)c21 [Compound 122] | 16.2 | 56 nM |  | 
3.35 nM | 679 nM | Cc1ccn2c(-c3ccc(Nc4ccc5c(n4)CCCC54CCOCC4)c4c3CNC4=O)cnc2c1 [Compound 121] | 19.4 | 140 nM |  | 
3.27 nM | 293 nM | O=C1NCc2c(-c3cnc4cc(F)ccn34)ccc(Nc3ccc4c(n3)C(N3CC[C@@H](F)C3)CC43CCOCC3)c21 (stereo partly drawn) [Compound 71, 4-(7-FLUOROIMIDAZOLO[1,2-A]PYRIDIN-3-YL)-7-((7-((R)-3-FLUOROPYRROLIDIN-1-YL)-2′,3′,5′,6,6′,7-HEXA HYDROSPIRO[CYCLOPENTYL[B]PYRIDIN-5,4′-PYRAN]-2-YL)AMINO)ISOINDOL-1-ONE] | 16.6 | 76 nM |  | 
3.55 nM | 1200 nM | O=C1NCc2c(-c3cnc4cc(F)ccn34)ccc(Nc3ccc4c(n3)C(NC3CCOC3)CC43CCOCC3)c21 (stereo not shown) [Compound 107] | 8.8 | 296 nM |  | 
4.67 nM | 291 nM | O=C1NCc2c(-c3cnc4cc(Cl)ccn34)ccc(Nc3ccc4c(n3)C(N3CCCC3)CC43CCOCC3)c21 (stereo not shown) [Compound 103] | 5.3 | 123 nM |  | 
3.49 nM | 552 nM | CC(C)NC1CC2(CCOCC2)c2ccc(Nc3ccc(-c4cnc5cc(F)ccn45)c4c3C(=O)NC4)nc21 (stereo not shown) [Compound 104] |  |  | 8.3 | 172 nM
5.25 nM | 1480 nM | CN(C)C1CC2(CCOC2)c2ccc(Nc3ccc(-c4cnc5cc(F)ccn45)c4c3C(=O)NC4)nc21 (stereo not shown) [Compound 58, 7-((7-(DIMETHYLAMINO)-4′,5′,6,7-TETRAHYDRO-2′H-SPIRO[CYCLOPENTANE[B]PYRIDINE-5,3′-FURAN]-2-YL)AMINO)-4-(7-FLUOROIMIDAZO[1,2-A]PYRIDIN-3-YL)ISOINDOL-1-ONE] | 6.5 | 352 nM |  | 
11.1 nM | 1200 nM | O=C1NCc2c(-c3cnc4cc(F)ccn34)ccc(Nc3ccc4c(n3)CCCC43CCC3)c21 [Compound 125] | 20.2 | 173 nM |  | 
10.6 nM | 105 nM | CN(C)C1CC2(CCOCC2)c2ccc(Nc3ccc(-c4cnc5cc(C6CC6)ccn45)c4c3C(=O)NC4)nc21 (stereo not shown) [Compound 164, 4-(7-CYCLOPROPYLIMIDAZO[1,2-A]PYRIDIN-3-YL)-7-((7-(DIMETHYLAMINO)-2′,3′,5′,6,6′,7-HEXAHYDROSPIRO[CYCLOPENTANE[B]PYRIDINE-5,4′-PYRAN]-2-YL)AMINO)ISOINDOL-1-ONE] | 9.2 | 458 nM |  | 

Compound | IC50 (HPK1) | IC50 (GLK) | Maximum induction factor [1] | EC3x [1] | Maximum induction factor (Jurkat cells) | EC3x (Jurkat cells)
O=C1NCc2c(-c3cnc4cc(OC(F)F)ccn34)ccc(Nc3ccc4c(n3)CNCC43CCOCC3)c21 [Compound 123] | 12.1 nM | 896 nM | 26.8 | 214 nM |  | 
4-(7-FLUOROIMIDAZO[1,2-A]PYRIDIN-3-YL)-7-((2,3,5,6,7′,8′-HEXAHYDRO-6′H-SPIRO[PYRAN-4,5′-[1,7]NAPHTHYRIDINE]-2′-YL)AMINO)ISOINDOL-1-ONE [Compound 87] | 5.12 nM | 724 nM | 11.2 | 193 nM |  | 
4-(7-FLUOROIMIDAZO[1,2-A]PYRIDIN-3-YL)-7-((7′-METHYL-2,3,5,6,7′,8′-HEXAHYDRO-6′-SPIRO[PYRAN-4,5′-[1,7]NAPHTHYRIDINE]-2′-YL)AMINO)ISOINDOL-1-ONE [Compound 50] | 3.39 nM | 1230 nM | 4.8 | 181 nM |  | 

— US20250361241A1, “HPK1 INHIBITOR AND MEDICAL USE THEREOF” (Betta Pharmaceuticals Co., Ltd., priority 2022, published 2025)
